Results from patent US5061794A, “Cephalosporin derivatives, and antibacterial agents” (priority 1986, dated 1991).
Converted amounts (≈) assume the structure as drawn. Like-named read-outs stand apart in the source and are kept apart here.

Assays:
[1] = test system: Ps. aeruginosa AK 109; experiment: in vitro antibacterial activity, agar plate dilution method (MIC); assay type: cell-based, Pseudomonas aeruginosa; details: for MIC: Pseudomonas aeruginosa, AK109, 16 h, read-out: Minimum Inhibitory Concentration (MIC)
How it was run: (§1)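 First, strains were cultured overnight in Mueller Hinton broth. Next, one loopful went onto drug-containing Mueller Hinton agar (10^6 CFU/ml). Finally, after 37° C. incubation for 16 hours, MIC was determined in μg/ml.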

[2] = test system: Ps. aeruginosa IF03445; experiment: as above; assay type: cell-based, Pseudomonas aeruginosa; details: 10^6 CFU/ml; for MIC: Pseudomonas aeruginosa, IF03445, 16 h, read-out: Minimum Inhibitory Concentration (MIC), Ps. aeruginosa IF03445
How it was run: as §1

[3] = test system: M. morganii GN5407; experiment: as above; assay type: cell-based; details: 10^6 CFU/ml; for MIC: Morganella morganii, GN5407, 16 h, read-out: Minimum Inhibitory Concentration (MIC), *M. morganii GN5407, lactamase-producing strain
How it was run: as §1

[4] = test system: E. coli NIHJ JC2; experiment: as above; assay type: cell-based; details: for MIC: Escherichia coli, NIHJJC2, 16 h, read-out: Minimum Inhibitory Concentration (MIC), E. coli NIHJ JC2, 10^6 CFU/ml, 37° C.
How it was run: as §1

[5] = test system: S. aureus 209P NIHJ-JC1; experiment: as above; assay type: cell-based; details: for MIC: Staphylococcus aureus, 16 h
How it was run: as §1

[6] = test system: P. vulgaris HX-19; experiment: as above; assay type: cell-based; details: Proteus vulgaris, HX19, 16 h, read-out: Minimum Inhibitory Concentration (MIC)
How it was run: as §1

[7] = test system: E. cloacae Nek 39; experiment: as above; assay type: cell-based; details: 10^6 CFU/ml; for MIC: Enterobacter cloacae, NEK39, 16 h, read-out: Minimum Inhibitory Concentration (MIC), *E. cloacae Nek 39, lactamase-producing strain
How it was run: as §1

[8] = test system: S. marcescens IAM 1184; experiment: as above; assay type: cell-based; details: for MIC: Serratia marcescens, IAM1184, 16 h, read-out: Minimum Inhibitory Concentration (MIC)
How it was run: as §1

[9] = test system: K. pneumoniae PCI-602; experiment: as above; assay type: cell-based; details: 10^6 CFU/ml; for MIC: Klebsiella pneumoniae, PCI602, 16 h, read-out: Minimum Inhibitory Concentration (MIC), K. pneumoniae PCI-602
How it was run: as §1

[10] = test system: S. marcescens No. 16-2; experiment: as above; assay type: cell-based; details: for MIC: Serratia marcescens, NO.162, 16 h
How it was run: as §1

[11] = test system: K. pneumoniae No. 42; experiment: as above; assay type: cell-based; details: 10^6 CFU/ml; for MIC: Klebsiella pneumoniae, NO.42, 16 h, read-out: Minimum Inhibitory Concentration (MIC), *K. pneumoniae No. 42, lactamase-producing strain
How it was run: as §1

[12] = test system: P. vulgaris No. 33; experiment: as above; assay type: cell-based; details: 10^6 CFU/ml; for MIC: Proteus vulgaris, NO.33, 16 h, read-out: Minimum Inhibitory Concentration (MIC), *P. vulgaris No. 33, lactamase-producing strain
How it was run: as §1

[13] = test system: E. cloacae 963; experiment: as above; assay type: cell-based; details: 10^6 CFU/ml
How it was run: as §1

[14] = test system: E. coli GN5482; experiment: as above; assay type: cell-based; details: for MIC: Escherichia coli, GN5482, 16 h
How it was run: as §1

[15] = test system: K. oxytoca GN10650; experiment: as above; assay type: cell-based; details: 10^6 CFU/ml; for MIC: Klebsiella oxytoca, GN10650, 16 h, read-out: Minimum Inhibitory Concentration (MIC), *K. oxytoca GN10650, lactamase-producing strain
How it was run: as §1

[16] = concentration in blood of mice after subcutaneous administration; assay type: in vivo, mice (ddY type, male); details: mouse, sc, 20 mg/kg
[17] = test system: A. calcoaceticus No. 4; experiment: in vitro antibacterial activity, agar plate dilution method (MIC); assay type: cell-based, Acinetobacter calcoaceticus; details: 10^6 CFU/ml; for MIC: Acinetobacter calcoaceticus, NO.4, 16 h, read-out: Minimum Inhibitory Concentration (MIC), A. calcoaceticus No. 4
How it was run: as §1

[18] = test system: Ps. cepacia 23; experiment: as above; assay type: cell-based, Pseudomonas cepacia; details: for MIC: read-out: Minimum Inhibitory Concentration (MIC)
How it was run: as §1

[19] = test system: Ps. aeruginosa AKR17; experiment: as above; assay type: cell-based, Pseudomonas aeruginosa; details: Pseudomonas aeruginosa
How it was run: as §1

[20] = test system: E. coli CSH(RE45); experiment: microbe, parasite or virus in culture; assay type: cell-based; details: 10^6 CFU/ml; for MIC: Escherichia coli, 16 h, read-out: Minimum Inhibitory Concentration (MIC), *E. coli CSH(RE45), lactamase-producing strain
How it was run: as §1

[21] = test system: E. coli CSH2 (RK1); experiment: microbe, parasite or virus in culture; assay type: cell-based; details: 10^6 CFU/ml; for MIC: Escherichia coli, 16 h, read-out: Minimum Inhibitory Concentration (MIC), *E. coli CSH2 (RK1), lactamase-producing strain
How it was run: as §1

[22] = read-out: Minimum Inhibitory Concentration (MIC)
[23] = Enterobacter cloacae, 963, 16 h, read-out: Minimum Inhibitory Concentration (MIC), E. cloacae 963
[24] = read-out: Minimum Inhibitory Concentration (MIC), *E. coli GN5482, lactamase-producing strain, 10^6 CFU/ml
[25] = S. marcescens IAM 1184, 10^6 CFU/ml

SMILES | MIC [1] | MIC [2] | MIC [3] | MIC [4] | MIC [5, 22] | MIC [6] | MIC [7] | MIC [8] | MIC [9] | MIC [10, 22] | MIC [11] | MIC [12] | MIC [13, 23] | MIC [15] | MIC [17] | MIC [20] | MIC [21] | MIC [14, 24] | MIC ([6]; P. vulgaris HX-19, 10^6 CFU/ml) | further results
CC(C)(O/N=C(\C(=O)N[C@@H]1C(=O)N2C(C(=O)[O-])=C(C[n+]3ccccc3)CS[C@H]12)c1csc(N)n1)C(=O)O [ceftazidime, reference compound] | 0.78 µg/mL (≈ 1.43 µM) | 1.56 µg/mL (≈ 2.85 µM) | 0.1 µg/mL (≈ 0.183 µM) | 0.1 µg/mL (≈ 0.183 µM) | 6.25 µg/mL (≈ 11.4 µM) | 0.025 µg/mL (≈ 0.0457 µM) | 1.56 µg/mL (≈ 2.85 µM) | < 0.006 µg/mL | 0.025 µg/mL (≈ 0.0457 µM) | 1.56 µg/mL (≈ 2.85 µM) | 0.39 µg/mL (≈ 0.714 µM) | 0.05 µg/mL (≈ 0.0915 µM) | 0.1 µg/mL (≈ 0.183 µM) | 0.1 µg/mL (≈ 0.183 µM) | 6.25 µg/mL (≈ 11.4 µM) |  |  |  |  | MIC [14, 22]: 1.56 µg/mL (≈ 2.85 µM); concentration at 0.125 h ([16]; 7.5 min): 25400 ng/mL; concentration at 0.25 h ([16]; 15 min): 24100 ng/mL; concentration at 0.5 h ([16]; 30 min): 17300 ng/mL; concentration at 1 h ([16]; 60 min): 3300 ng/mL; concentration at 2 h ([16]; 120 min): 200 ng/mL
CCON=C(C(=O)N[C@@H]1C(=O)N2C(C(=O)[O-])=C(CSc3nc(-c4ccc(O)c(O)c4)cs3)CS[C@H]12)c1csc(N)n1.[Na+] [compound 48, sodium 7β-[2-(2-aminothiazol-4-yl)-2-ethoxyiminoacetamido]-3-[4-(3,4-dihydroxyphenyl)-thiazol-2-yl]thiomethyl-3-cephem-4-carboxylate] | 0.39 µg/mL | 1.56 µg/mL | 0.1 µg/mL | 0.39 µg/mL | 3.12 µg/mL | 0.0125 µg/mL | 0.78 µg/mL | 0.1 µg/mL | < 0.006 µg/mL |  | 0.05 µg/mL | 0.05 µg/mL | 0.1 µg/mL | 1.56 µg/mL | 0.39 µg/mL | 0.05 µg/mL | 0.025 µg/mL | 1.56 µg/mL |  | MIC ([18]; Burkholderia cepacia, 23, 16 h): 0.1 µg/mL; MIC ([19]; AKR17, 16 h, read-out: Minimum Inhibitory Concentration (MIC)): 50 µg/mL; MIC ([10]; read-out: Minimum Inhibitory Concentration (MIC), *S. marcescens No. 16-2, lactamase-producing strain, 10^6 CFU/ml): 6.25 µg/mL
CON=C(C(=O)NC1C(=O)N2C(C(=O)O)=C(CSc3nc(-c4ccc(O)c(O)c4)cs3)CSC12)c1csc(N)n1 (stereo not drawn) [compound 39, sodium 7β-[2-(2-aminothiazol-4-yl)-2-methoxviminoacetamido]-3-[4-(3,4-dihydroxyphenvl)-thiazol-2-yl]thiomethyl-3-cephem-4-carboxylate] | 3.12 µg/mL | 1.56 µg/mL | 0.05 µg/mL | 0.1 µg/mL |  |  | 0.39 µg/mL |  | < 0.006 µg/mL | 3.12 µg/mL | 0.2 µg/mL | 0.05 µg/mL | 0.025 µg/mL | 1.56 µg/mL | 0.39 µg/mL | 0.1 µg/mL | 0.0125 µg/mL | 0.78 µg/mL | < 0.006 µg/mL | MIC ([18]; Burkholderia cepacia, 16 h, Ps. cepacia 23, 10^6 CFU/ml): 0.2 µg/mL; MIC ([19]; 16 h, Ps. aeruginosa AKR17, 10^6 CFU/ml, read-out: Minimum Inhibitory Concentration (MIC)): > 100 µg/mL; MIC ([5]; read-out: Minimum Inhibitory Concentration (MIC), S. aureus 209P NIHJ-JC1, 10^6 CFU/ml, 37° C., 16 hours): 1.56 µg/mL; MIC [8, 25]: 0.05 µg/mL
Nc1nc(C(=NOC(C(=O)O)c2ccc(O)c(O)c2)C(=O)NC2C(=O)N3C(C(=O)O)=C(CSc4nnc(-c5ccc(O)c(O)c5)s4)CSC23)cs1 (single isomer, unassigned) [Example 38 DB, disodium 7β-{2-(2-aminothiazol-4-yl)-2-(α-carboxylate-3,4-dihydroxybenzyloxyimino)acetamido]-3-[5-(3,4-dihydroxyphenyl)-1,3,4-thiadiazol-2-yl]thiomethyl-3-cephem-4-carboxylate] |  |  |  |  |  |  |  |  |  |  |  |  |  |  |  |  |  |  | 0.025 µg/mL | Minimum Inhibitory Concentration (MIC) ([18]; Ps. cepacia 23, 10^6 CFU/ml): < 0.006 µg/mL; Minimum Inhibitory Concentration (MIC) ([1]; Ps. aeruginosa AK 109, 10^6 CFU/ml): 0.78 µg/mL; Minimum Inhibitory Concentration (MIC) ([2]; Ps. aeruginosa IF03445): 3.12 µg/mL; MIC ([19]; AKR17, 16 h, read-out: Minimum Inhibitory Concentration (MIC), Ps. aeruginosa AKR17, 10^6 CFU/ml): 1.56 µg/mL; Minimum Inhibitory Concentration (MIC) ([20]; *E. coli CSH(RE45), lactamase-producing strain): 0.0125 µg/mL; Minimum Inhibitory Concentration (MIC) ([21]; *E. coli CSH2 (RK1), lactamase-producing strain): 0.025 µg/mL; Minimum Inhibitory Concentration (MIC) ([3]; *M. morganii GN5407, lactamase-producing strain): 0.2 µg/mL; Minimum Inhibitory Concentration (MIC) ([4]; E. coli NIHJ JC2, 10^6 CFU/ml, 37° C., 16 hours): 0.78 µg/mL; Minimum Inhibitory Concentration (MIC) ([5]; S. aureus 209P NIHJ-JC1, 10^6 CFU/ml, 37° C., 16 hours): 1.56 µg/mL; Minimum Inhibitory Concentration (MIC) ([7]; *E. cloacae Nek 39, lactamase-producing strain): 0.39 µg/mL; Minimum Inhibitory Concentration (MIC) [8, 25]: 0.1 µg/mL; Minimum Inhibitory Concentration (MIC) ([9]; K. pneumoniae PCI-602): < 0.006 µg/mL; Minimum Inhibitory Concentration (MIC) ([10]; *S. marcescens No. 16-2, lactamase-producing strain, 10^6 CFU/ml): 6.25 µg/mL; Minimum Inhibitory Concentration (MIC) ([11]; *K. pneumoniae No. 42, lactamase-producing strain): 0.1 µg/mL; Minimum Inhibitory Concentration (MIC) ([12]; *P. vulgaris No. 33, lactamase-producing strain): 0.1 µg/mL; MIC ([13]; Enterobacter cloacae, 16 h, E. cloacae 963, read-out: Minimum Inhibitory Concentration (MIC)): 0.2 µg/mL; Minimum Inhibitory Concentration (MIC) ([14]; *E. coli GN5482, lactamase-producing strain, 10^6 CFU/ml): 0.78 µg/mL; Minimum Inhibitory Concentration (MIC) ([15]; *K. oxytoca GN10650, lactamase-producing strain): 0.1 µg/mL; Minimum Inhibitory Concentration (MIC) ([17]; A. calcoaceticus No. 4): 0.05 µg/mL
